Results from ChEMBL document CHEMBL5550106, “Recent advances in the exploration of oxazolidinone scaffolds from compound development to antibacterial agents and other bioactivities” (Eur J Med Chem, 2024).
Values after ≈ are worked out from the molar mass of the structure shown.

Legend:
Escherichia coli [1] = assay: Antimicrobial activity against wild type Escherichia coli MG1655 assessed as inhibition of microbial growth; assay type: functional
Staphylococcus aureus = assay: Antibacterial activity against Staphylococcus aureus assessed as reduction in bacterial growth incubated for 24 hrs by broth microdilution method; assay type: functional
Escherichia coli [2] = assay: Antibacterial activity against efflux pump-efficient Escherichia coli MG1655 assessed as bacterial growth inhibition; assay type: functional
Escherichia coli [3] = assay: Antibacterial activity against Escherichia coli MG1655 in presence of polymyxin B nonapeptide; assay type: functional
NCI-H460 = assay: Antiproliferative activity against human NCI-H460 cells assessed as inhibition of cell growth by MTT assay; assay type: functional, cell-based
MGC-803 = assay: Antiproliferative activity against human MGC-803 cells assessed as reduction in cell growth by MTT assay; assay type: functional, cell-based
L02 = assay: Antiproliferative activity against human L02 cells assessed as inhibition of cell growth incubated for 24 hrs by MTT assay; assay type: functional, cell-based; details: L02, 24 h
SK-OV-3 = assay: Antiproliferative activity against human SK-OV-3 cells assessed as reduction in cell viability incubated for 24 hrs by CCK8 assay; assay type: functional, cell-based; details: SK-OV-3, 24 h

Structure (SMILES) | MIC (Escherichia coli [1]) | MIC (Staphylococcus aureus) | MIC (Escherichia coli [2]) | MIC (Escherichia coli [3]) | IC50 (NCI-H460) | IC50 (MGC-803) | IC50 (SK-OV-3) | IC50 (L02)
O=C1O[C@@H](CO)CN1c1ccc(-c2ccc([N+](=O)[O-])c(O)c2)c(F)c1 | 64 µg/mL | 0.5 µg/mL (≈ 1.44 µM) | 64 µg/mL (≈ 184 µM) | 64 µg/mL | – | – | – | –
O=C1O[C@@H](CO)CN1c1ccc(-c2ccccc2)c(F)c1 | > 64 µg/mL | 1 µg/mL (≈ 3.48 µM) | 16 µg/mL (≈ 55.7 µM) | 16 µg/mL | – | – | – | –
CC(C)c1ccc2c(c1)CCC1[C@](C)(C(=O)OCC3CN(c4ccc(Cl)cc4)C(=O)O3)CCC[C@]21C (stereo partly specified) | – | – | – | – | ≥ 4.3 µM | 3.82 µM | ≥ 4.1 µM | ≥ 26.4 µM
O=Cc1ccc(-c2ccc(N3C[C@H](CO)OC3=O)cc2F)cc1O | 128 µg/mL | < 0.5 µg/mL | 16 µg/mL (≈ 48.3 µM) | 8 µg/mL | – | – | – | –
CC(C)c1ccc2c(c1)CCC1[C@](C)(C(=O)OCC3CN(c4cccc(Cl)c4)C(=O)O3)CCC[C@]21C (stereo partly specified) | – | – | – | – | ≥ 4.3 µM | 3.82 µM | ≥ 4.1 µM | ≥ 26.4 µM
CC(C)c1ccc2c(c1)CCC1[C@](C)(C(=O)OCC3CN(c4ccc(F)cc4)C(=O)O3)CCC[C@]21C (stereo partly specified) | – | – | – | – | ≥ 4.3 µM | 3.82 µM | ≥ 4.1 µM | ≥ 26.4 µM
Cc1cccc(N2CC(COC(=O)[C@]3(C)CCC[C@]4(C)c5ccc(C(C)C)cc5CCC34)OC2=O)c1 (stereo partly specified) | – | – | – | – | ≥ 4.3 µM | 3.82 µM | ≥ 4.1 µM | ≥ 26.4 µM
C#Cc1cccc(N2CC(COC(=O)[C@]3(C)CCC[C@]4(C)c5ccc(C(C)C)cc5CCC34)OC2=O)c1 (stereo partly specified) | – | – | – | – | ≥ 4.3 µM | 3.82 µM | ≥ 4.1 µM | ≥ 26.4 µM
Nc1cc(-c2ccc(N3C[C@H](CO)OC3=O)cc2F)ccc1O | > 64 µg/mL | 4 µg/mL (≈ 12.6 µM) | 16 µg/mL (≈ 50.3 µM) | 64 µg/mL | – | – | – | –
COc1ccc(N2CC(COC(=O)[C@]3(C)CCC[C@]4(C)c5ccc(C(C)C)cc5CCC34)OC2=O)cc1 (stereo partly specified) | – | – | – | – | ≥ 4.3 µM | 3.82 µM | ≥ 4.1 µM | ≥ 26.4 µM
CC(C)c1ccc2c(c1)CCC1[C@](C)(C(=O)OCC3CN(c4ccc(Br)cc4)C(=O)O3)CCC[C@]21C (stereo partly specified) | – | – | – | – | ≥ 4.3 µM | 3.82 µM | ≥ 4.1 µM | ≥ 26.4 µM
N#Cc1ccc(O)cc1-c1ccc(N2C[C@H](CO)OC2=O)cc1F | > 256 µg/mL | 32 µg/mL (≈ 97.5 µM) | 64 µg/mL (≈ 195 µM) | 128 µg/mL | – | – | – | –
O=C1O[C@@H](CO)CN1c1ccc(-c2cc(O)ccc2F)c(F)c1 | > 256 µg/mL | 2 µg/mL (≈ 6.23 µM) | 16 µg/mL (≈ 49.8 µM) | 16 µg/mL | – | – | – | –
Cc1ccc(N2CC(COC(=O)[C@]3(C)CCC[C@]4(C)c5ccc(C(C)C)cc5CCC34)OC2=O)cc1 (stereo partly specified) | – | – | – | – | ≥ 4.3 µM | 3.82 µM | ≥ 4.1 µM | ≥ 26.4 µM
O=C1O[C@@H](CO)CN1c1ccc(-c2cccc(O)c2F)c(F)c1 | > 256 µg/mL | 2 µg/mL (≈ 6.23 µM) | 32 µg/mL (≈ 99.6 µM) | 32 µg/mL | – | – | – | –
Nc1ccc(-c2ccc(N3C[C@H](CO)OC3=O)cc2F)cc1O | > 64 µg/mL | 4 µg/mL (≈ 12.6 µM) | 32 µg/mL (≈ 101 µM) | 32 µg/mL | – | – | – | –
CC(C)c1ccc2c(c1)CCC1[C@](C)(C(=O)OCC3CN(c4cccc(F)c4)C(=O)O3)CCC[C@]21C (stereo partly specified) | – | – | – | – | ≥ 4.3 µM | 3.82 µM | ≥ 4.1 µM | ≥ 26.4 µM
O=C1O[C@@H](CO)CN1c1ccc(-c2ccc(F)c(O)c2)c(F)c1 | > 64 µg/mL | 2 µg/mL (≈ 6.23 µM) | 16 µg/mL (≈ 49.8 µM) | 16 µg/mL | – | – | – | –
CC(C)c1ccc2c(c1)CCC1[C@](C)(C(=O)OCC3CN(c4cccc(Br)c4)C(=O)O3)CCC[C@]21C (stereo partly specified) | – | – | – | – | ≥ 4.3 µM | 3.82 µM | ≥ 4.1 µM | ≥ 26.4 µM

The next lines start with results.

MIC (Escherichia coli [1]) | MIC (Staphylococcus aureus) | MIC (Escherichia coli [2]) | MIC (Escherichia coli [3]) | IC50 (NCI-H460) | IC50 (MGC-803) | IC50 (SK-OV-3) | Structure (SMILES) | IC50 (L02)
– | – | – | – | ≥ 15.6 µM | 7.1 µM | ≥ 14.9 µM | Cc1ccccc1NCC(O)COC(=O)[C@]1(C)CCC[C@]2(C)c3ccc(C(C)C)cc3CCC12 (stereo partly specified) | ≥ 28.3 µM
– | – | – | – | ≥ 15.6 µM | 7.1 µM | ≥ 14.9 µM | CC(C)c1ccc2c(c1)CCC1[C@](C)(C(=O)OCC(O)CNc3ccc(Br)cc3)CCC[C@]21C (stereo partly specified) | ≥ 28.3 µM
– | – | – | – | ≥ 15.6 µM | 7.1 µM | ≥ 14.9 µM | CC(C)c1ccc2c(c1)CCC1[C@](C)(C(=O)OCC(O)CNc3cccc(Cl)c3)CCC[C@]21C (stereo partly specified) | ≥ 28.3 µM
– | – | – | – | ≥ 4.3 µM | 3.82 µM | ≥ 4.1 µM | CC(C)c1ccc2c(c1)CCC1[C@](C)(C(=O)OCC3CN(c4ccccc4F)C(=O)O3)CCC[C@]21C (stereo partly specified) | ≥ 26.4 µM
– | – | – | – | ≥ 15.6 µM | 7.1 µM | ≥ 14.9 µM | C#Cc1cccc(NCC(O)COC(=O)[C@]2(C)CCC[C@]3(C)c4ccc(C(C)C)cc4CCC23)c1 (stereo partly specified) | ≥ 28.3 µM
– | – | – | – | ≥ 4.3 µM | 3.82 µM | ≥ 4.1 µM | COc1cccc(N2CC(COC(=O)[C@]3(C)CCC[C@]4(C)c5ccc(C(C)C)cc5CCC34)OC2=O)c1 (stereo partly specified) | ≥ 26.4 µM
– | – | – | – | ≥ 4.3 µM | 3.82 µM | ≥ 4.1 µM | COc1ccccc1N1CC(COC(=O)[C@]2(C)CCC[C@]3(C)c4ccc(C(C)C)cc4CCC23)OC1=O (stereo partly specified) | ≥ 26.4 µM
– | – | – | – | ≥ 15.6 µM | 7.1 µM | ≥ 14.9 µM | Cc1ccc(NCC(O)COC(=O)[C@]2(C)CCC[C@]3(C)c4ccc(C(C)C)cc4CCC23)cc1 (stereo partly specified) | ≥ 28.3 µM
– | – | – | – | ≥ 15.6 µM | 7.1 µM | ≥ 14.9 µM | CC(C)c1ccc2c(c1)CCC1[C@](C)(C(=O)OCC(O)CNc3ccc(F)cc3)CCC[C@]21C (stereo partly specified) | ≥ 28.3 µM
– | – | – | – | ≥ 4.3 µM | 3.82 µM | ≥ 4.1 µM | CC(C)c1ccc2c(c1)CCC1[C@](C)(C(=O)OCC3CN(c4ccccc4)C(=O)O3)CCC[C@]21C (stereo partly specified) | ≥ 26.4 µM
– | – | – | – | ≥ 4.3 µM | 3.82 µM | ≥ 4.1 µM | Cc1ccccc1N1CC(COC(=O)[C@]2(C)CCC[C@]3(C)c4ccc(C(C)C)cc4CCC23)OC1=O (stereo partly specified) | ≥ 26.4 µM
– | – | – | – | ≥ 15.6 µM | 7.1 µM | ≥ 14.9 µM | COc1cccc(NCC(O)COC(=O)[C@]2(C)CCC[C@]3(C)c4ccc(C(C)C)cc4CCC23)c1 (stereo partly specified) | ≥ 28.3 µM
– | – | – | – | ≥ 15.6 µM | 7.1 µM | ≥ 14.9 µM | COc1ccccc1NCC(O)COC(=O)[C@]1(C)CCC[C@]2(C)c3ccc(C(C)C)cc3CCC12 (stereo partly specified) | ≥ 28.3 µM
– | – | – | – | ≥ 15.6 µM | 7.1 µM | ≥ 14.9 µM | Cc1cccc(NCC(O)COC(=O)[C@]2(C)CCC[C@]3(C)c4ccc(C(C)C)cc4CCC23)c1 (stereo partly specified) | ≥ 28.3 µM
– | – | – | – | ≥ 15.6 µM | 7.1 µM | ≥ 14.9 µM | COc1ccc(NCC(O)COC(=O)[C@]2(C)CCC[C@]3(C)c4ccc(C(C)C)cc4CCC23)cc1 (stereo partly specified) | ≥ 28.3 µM
– | – | – | – | ≥ 15.6 µM | 7.1 µM | ≥ 14.9 µM | CC(C)c1ccc2c(c1)CCC1[C@](C)(C(=O)OCC(O)CNc3cccc(F)c3)CCC[C@]21C (stereo partly specified) | ≥ 28.3 µM
– | – | – | – | ≥ 15.6 µM | 7.1 µM | ≥ 14.9 µM | CC(C)c1ccc2c(c1)CCC1[C@](C)(C(=O)OCC(O)CNc3ccccc3)CCC[C@]21C (stereo partly specified) | ≥ 28.3 µM
– | – | – | – | ≥ 15.6 µM | 7.1 µM | ≥ 14.9 µM | CC(C)c1ccc2c(c1)CCC1[C@](C)(C(=O)OCC(O)CNc3ccccc3F)CCC[C@]21C (stereo partly specified) | ≥ 28.3 µM
– | – | – | – | ≥ 15.6 µM | 7.1 µM | ≥ 14.9 µM | CC(C)c1ccc2c(c1)CCC1[C@](C)(C(=O)OCC(O)CNc3cccc(Br)c3)CCC[C@]21C (stereo partly specified) | ≥ 28.3 µM
– | – | – | – | ≥ 15.6 µM | 7.1 µM | ≥ 14.9 µM | CC(C)c1ccc2c(c1)CCC1[C@](C)(C(=O)OCC(O)CNc3ccc(Cl)cc3)CCC[C@]21C (stereo partly specified) | ≥ 28.3 µM
